From the METLIN SMRT retention time set (Domingo-Almenara et al. 2019)

Test: gradient 5% acetonitrile 3 min, to 50% in 2 min, to 85% in 15 min, held 3 min, 100 µL/min
Settings: column: Zorbax Extend-C18 2.1 x 50 mm; eluents: water / acetonitrile, 0.1% formic acid
Procedure, shortened: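 Data were gathered over 3 months by HPLC coupled to a quadrupole time-of-flight mass spectrometer, operated in positive and negative ionization mode. Mixtures of ~100 pure standards ran on a Zorbax Extend-C18 column (2.1 × 50 mm, 1.8 μm) at 100 μL/min, with water and acetonitrile each containing 0.1% formic acid and dead and dwell volumes of 40 μL and 900 μL. Retention time was read from adduct peaks picked by computer and checked manually.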

| Compound | RP-LC retention time [s] |
| --- | --- |
| Cc1cc(F)ccc1NS(=O)(=O)c1cc2n(c1)CCN(C(C)C)C2=O | 773 |
| O=C(NCc1ccc(F)cc1F)C1=C2CCCN2c2ccc(F)cc2S1(=O)=O | 895 |
| Cc1cc(C)c(CNC(=O)C2CCN(c3cncnc3N3CCN(C)CC3)CC2)c(C)c1 | 598 |
| O=C(NC1CCCC1)c1ccc2c(c1)nc1n2CCCCC1 | 600 |
| CC(C)N1C(=O)c2cccnc2Sc2cc(NC(=O)c3c(F)cccc3Cl)ccc21 | 973 |
| CCN1CCn2cc(S(=O)(=O)Nc3ccc(F)cc3)cc2C1=O | 696 |
| CCSc1nnc(-c2nn(C)c3c2CN(S(=O)(=O)c2ccc(C(C)C)cc2)CC3)n1CC | 1090 |
| O=C(NCCCn1ccnc1)C1CC(=O)N(CCc2c[nH]c3ccc(Cl)cc23)C1 (stereo not given) | 603 |
| CCOc1ccc(N2CC(NC(=O)NCCc3ccc(S(N)(=O)=O)cc3)CC2=O)cc1 (stereo not given) | 617 |
| Cn1nc(-c2nc(C3CC3)no2)c2c1CCN(C(=O)c1cc3c(s1)CCCC3)C2 | 1010 |
| CCn1cc(CN2CCC(C(=O)NCC3CCCCC3)CC2)c2cc(OC)ccc21 | 736 |
| O=C(CSc1nnc2c3sc(N4CCCC4)nc3ncn12)NC1CCCCC1 | 767 |
| CN1CCC(NC(=O)C2CCN(C(=O)c3ncn4c3COC(c3ccc(F)cc3)C4)CC2)CC1 (stereo not given) | 599 |
| O=C(Nc1ccc2c(c1)OCCO2)N1CCC2(CC1)CC(N1CCCC1)CCO2 (stereo not given) | 586 |
| CC1CN(Cc2nc3c(c(=O)n(C)c(=O)n3C)n2CCCc2ccccc2)CC(C)O1 (stereo not given) | 732 |

Further lines, results first:

| RP-LC retention time [s] | Compound |
| --- | --- |
| 834 | CC(C(=O)Nc1ccc(F)cc1F)C1CCN(C(=O)Nc2ccccc2)CC1 (stereo not given) |
| 785 | CCC(C)C(=O)NC1CCN(C2=NS(=O)(=O)C(c3ccc(F)cc3)=C2C)CC1 (stereo not given) |
| 1060 | COc1ccc(CN2C=C(C(=O)OCc3nc(-c4ccccc4F)no3)C(C)=NS2(=O)=O)cc1 |
| 745 | CCN1C(=O)c2cccnc2Sc2cc(NC(=O)c3ccoc3)ccc21 |
| 683 | COc1ccccc1OCC(O)CN1CCN(CC(=O)Nc2c(C)cccc2C)CC1 (stereo not given) |
| 1120 | COc1cccc(-c2nnc(Cc3nc(-c4ccc(C)c(C)c4)no3)o2)c1 |
| 938 | Cc1ccc(C)c(Sc2ccc(N3CCC(C(=O)NCC(C)c4ccccc4)CC3)nn2)c1 (stereo not given) |
| 758 | COc1cccc(N2CCN(S(=O)(=O)c3cc4[nH]c(=O)[nH]c4cc3C)CC2)c1 |
| 602 | COc1ccc(N2CCN(C(=O)C3CCN(c4cncnc4N(C)C)CC3)CC2)cc1 |
| 1000 | COc1ccc(C2=NN(C(=O)c3ccccc3)C(c3cccc([N+](=O)[O-])c3)C2)cc1 (stereo not given) |
| 801 | CCc1ccc(CN2C(=O)c3c(C(=O)OC)ncn3CC2(C)C(=O)NCc2ccccc2)cc1 (stereo not given) |
| 956 | COCCCNC(=O)c1ccc(Oc2nccnc2N2CCC(C)CC2)cc1 |
| 1340 | CCOc1ccc(-c2noc(Cc3nc(-c4ccccc4Cl)cs3)n2)cc1 |
| 857 | O=C(Nc1ccc(Cl)cc1)C1CC(=O)N(CCc2c[nH]c3ccc(F)cc23)C1 (stereo not given) |
| 833 | O=[N+]([O-])c1ccc(-c2nc(N3CCOCC3)c3ccccc3n2)cc1 |
| 722 | CCc1cccc(NS(=O)(=O)c2cc3n(c2)CCN(C)C3=O)c1 |
| 862 | O=C(Nc1ccccc1)c1cccc(N2CC(C(=O)NC3CCCCCC3)CC2=O)c1 (stereo not given) |
| 776 | Cc1ccc(C2=NC3(CCN(C(=O)c4ccc(C#N)cc4)CC3)ON2)cc1 |
| 737 | O=C(O)c1cccc(Nc2c(-c3cccc(Cl)c3)nc3cnccn23)c1 |
| 906 | Cc1c(Cl)cccc1NC(=O)Cn1nc(N(C)C)c2ccccc2c1=O |
